One substance from article PMC6627489, “Metal-Biosurfactant Complexes Characterization: Binding, Self-Assembly and Interaction with Bovine Serum Albumin” (International Journal of Molecular Sciences, 2019) can be followed below.

Data set [1] is described as follows: Surface tension measurements (du Noüy ring), CMC determination. In kind it is physicochemical. The following applies: du Noüy ring tensiometry, 10 mM Hepes buffer pH 7.4, 25 °C, metal ions 0.1 mM where present, triplicate. The method, then:
For the pure surfactin in the Hepes buffer without divalent counterions, the critical micelle concentration (CMC) value was 0.045 mM. Regarding the effect of divalent cations, Ca^2+ decreased the CMC value of surfactin-C15 more than the other cations. Compared with the surfactin-C15 solution without metal ions, the CMC of Ca^2+-surfactin decreased from 0.045 mM to 0.017 mM. The addition of 0.1 mM of Cu^2+, Mg^2+ and Zn^2+ to surfactin-C15 reduced the CMCs to 0.033 mM, 0.036 mM and 0.038 mM, respectively. All the tested metal ions led to reductions of the surface tension of surfactin-C15 at the CMC (γcmc), being the highest reductions obtained with Cu^2+ and Ca^2+ (from 28.4 mN·m^−1 up to 24.5 and 25.1 mN·m^−1, respectively). The peptide ring of surfactin adopts a “horsesaddle” structure in solution, with the two charged residues forming a “claw”, which is a potential binding site for divalent cations.
Figure 3 Surface tension profiles of surfactin and metal-surfactin complexes in Hepes buffer (pH 7.4) at 25 °C. The values represent the mean of triplicates ± SD.
The surface tension (γ) measurements were performed at room temperature (25 °C) according to the du Noüy’s ring method using a KRÜSS K20 Tensiometer (KRÜSS GmbH, Hamburg, Germany). […] The surface tension data were analyzed using the Origin software provided with the equipment to obtain the CMC values.

Data set [2] can be described thus: Micelle size by dynamic light scattering (DLS). The following applies: 10 mM Hepes pH 7.4, 25 °C. In kind it is physicochemical. From the text: For example, it is known that the addition of metal ions decreases the CMC of surfactin. This is probably related with two important competing forces during the micellization process. Electrostatic interactions, which are responsible for the repulsion of hydrophilic groups of the lipopeptide inhibit the formation of micelles. On the other hand, hydrophobic interactions are responsible for initiation of micellization through exclusion of fatty acid chains from the aqueous environment. The presence of divalent cations additionally supports the self-assembly process. […] In the case of the Cu^2+-surfactin system, Vmic^PM6 is twice lower than in the case of the free lipopeptide. Such big differences influence the aggregation number. Generally, Nagg decreases after binding of cations. The experimental micelle volumes and hydrodynamic radii with their theoretically calculated counterparts and aggregation numbers are shown in Table 1. The experimental (RH^DLS) and theoretically calculated (RH^PM6) hydrodynamic radii of surfactin-C15 were 2.46 nm and 2.40 nm, respectively. Addition of Cu^2+, Zn^2+, Mg^2+ and Ca^2+ reduces the size of the microstructures. In this study, we observed the largest modifications of surfactin-C15 conformation due to the binding of Cu^2+; in that case RH^DLS and RH^PM6 were 1.82 nm and 1.80 nm, respectively. […]

Data set [3] deals with bovine serum albumin (BSA) (Bos taurus, UniProt P02769). Put plainly: Fluorescence quenching of BSA (Stern-Volmer, binding constant, Van't Hoff). The following applies: for kq, biomolecular quenching rate constant / KSV, Stern-Volmer quenching constant: BSA 15 µM; for kq, biomolecular quenching rate constant: from KSV with τ0 about 5 ns; for KSV, Stern-Volmer quenching constant: excitation 280 nm; for ΔG of binding to BSA: ΔG=ΔH−TΔS. An excerpt: Fluorescence spectroscopy is a valuable tool for studying ligand-protein interactions. BSA contains two tryptophan residues, Trp134 and Trp213, which are located in sub-domain IB and sub-domain IIA, respectively. The maximum emission wavelength of BSA was found at 348 nm, and the intensity decreased regularly upon increasing the concentration of surfactin and metal-surfactin complexes. This interaction takes place adjacent to the Trp in BSA and changes the polarity around the fluorophore. This phenomenon is ascribed to the formation of surfactin/BSA and metal-surfactin/BSA complexes.
bovine serum albumin (BSA), sequence (P02769 25-607): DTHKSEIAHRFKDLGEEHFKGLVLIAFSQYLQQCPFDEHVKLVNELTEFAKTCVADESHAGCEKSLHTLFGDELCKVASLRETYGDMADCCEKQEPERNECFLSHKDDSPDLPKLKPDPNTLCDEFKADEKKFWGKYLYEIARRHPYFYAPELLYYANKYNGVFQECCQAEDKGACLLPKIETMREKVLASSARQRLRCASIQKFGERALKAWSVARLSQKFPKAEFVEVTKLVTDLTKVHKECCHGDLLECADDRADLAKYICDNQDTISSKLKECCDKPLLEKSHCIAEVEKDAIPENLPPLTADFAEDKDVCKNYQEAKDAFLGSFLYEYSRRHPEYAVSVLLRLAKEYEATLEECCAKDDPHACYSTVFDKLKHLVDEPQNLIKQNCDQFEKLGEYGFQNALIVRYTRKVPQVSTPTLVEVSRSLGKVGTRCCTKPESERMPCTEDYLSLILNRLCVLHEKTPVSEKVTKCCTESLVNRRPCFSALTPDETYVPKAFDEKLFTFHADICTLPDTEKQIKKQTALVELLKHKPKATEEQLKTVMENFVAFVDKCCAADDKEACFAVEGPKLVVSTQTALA
Figure 4 Fluorescence emission spectra of bovine serum albumin (BSA) with different concentrations of Cu^2+-surfactin (a), Zn^2+-surfactin (b), Mg^2+-surfactin (c), Ca^2+-surfactin (d) and surfactin (e). Conditions: BSA: 15 µM; metal-lipopeptide (a–g): 0, 10, 20, 50, 70, 100 and 120 µM; pH = 7.4; T =25 °C.
Fluorescence quenching can occur through dynamic and static mechanisms. Both dynamic and static quenching require molecular contact between the fluorophore and the quencher. The Stern–Volmer quenching (KSV) values decrease with an increase in temperature for static quenching, but the reverse effect is observed for dynamic quenching. Quenching parameters were calculated from the Stern–Volmer equation [34]:(1) F0/F=1+KSV[Q]=1+kqτ0[Q] where F0 and F are the fluorescence intensities in the absence and presence of surfactin or metal-surfactin complexes, respectively; KSV is the Stern–Volmer quenching constant; [Q] is the concentration of surfactin or metal-surfactin complexes; kq is the biomolecular quenching rate constant; and τ0 is the lifetime of the fluorophore. The fluorescence lifetime of BSA is about 5 ns. The KSV values obtained from the plot of [Q] versus F0/F (shown in Figure 5) were in the range from 6.696 × 10^3 to 7.787 × 10^3 M^−1 corresponding to the surfactin and metal-surfactin complexes.
For the static quenching interaction, the binding constant (Kb) and the number of binding sites (n) can be determined by the following equation:(2) log[(F0−F)/F]=logKb+nlog[Q] where F0 and F are the fluorescence intensities in the absence and presence of surfactin or metal-surfactin complexes, respectively, and [Q] is the concentration of surfactin or metal-surfactin complexes. Binding constants obtained from the plot of log [Q] versus log [(F0−F)/F] (Figure 6) corresponding to surfactin and metal-surfactin complexes ranged from 0.746 × 10^4 to 1.315 × 10^4 M^−1. […] Regarding the binding constants (Kb), surfactin has values higher than all the tested metal-surfactin complexes. […] The above results are similar to those reported for metal-amphisin/BSA [27].
Thermodynamic parameters for a binding interaction can be used as major evidence for the nature of intermolecular forces. There are four types of interaction forces, which could play a role in ligand binding to proteins: Van der Waals forces, hydrophobic forces, electrostatic interactions and hydrogen bonds. Thermodynamic parameters relying on temperatures were analyzed to characterize the acting force between surfactin and metal-surfactin complexes with BSA. To obtain such information, the thermodynamic parameters were calculated from the Van’t Hoff relation:(3) lnK=−ΔH^0/RT+ΔS^0/R (4) ΔG^0=ΔH^0−TΔS^0=−RTlnK where K is the binding constant, R is the gas constant and T is the experimental temperature. ΔH denotes the enthalpy change and ΔS denotes the entropy change of the binding process. The ΔH and ΔS values were calculated from the slope and intercept of the Van’t Hoff plot (Figure S2), respectively. The negative sign for ΔG means that the interaction process is spontaneous. […] This observation is supported by the docking results.
The fluorescence quenching spectra were obtained with a Varian Cary eclipse fluorescence spectrophotometer. […]

Setting [4] is: 25 °C, pH 7.4, from plot of log[(F0−F)/F] versus log[Q].
[5] abbreviates: Van't Hoff plot over 25, 30, 37 °C.

Non-standard residues stand in square brackets, D forms with d. No end group written: not given here.

“EL[dL]VD[dL]L (also: lariat or depsi (positions not given here)) [Surfactin, surfactin-C15, cyclic lipopeptide biosurfactant from Bacillus subtilis #309; heptapeptide closed to a lactone ring by a C15 β-hydroxyl fatty acid]”: in data set [1] (surfactin-C15 0.003-0.12 mM), the “critical micelle concentration (CMC)” value came to 0.045 mM. The “surface tension at the CMC (γcmc)” value in data set [1] amounted to 28.4 mN·m^−1. Also, in data set [2] (DLS, 173° backscatter, mean of 9 replicates ± SD), the “RH^(DLS), hydrodynamic radius of micelles” value was 2.46 ± 0.03 nm. Moreover, the “Vmic^(DLS), micelle volume” value in data set [2] (Vmic(DLS)=4/3·π·(RH(DLS))^3, from DLS radius) was found to be 62.36 nm^3. Moreover, the “Kb, binding constant with BSA” value in data set [3] (setting [4]) was 13150 M⁻¹. For the same substance, the “n, number of binding sites on BSA” value in data set [3] (setting [4]) was 1.07. The “kq, biomolecular quenching rate constant” value in data set [3] (T 25 °C, pH 7.4) was found to be 1.339e+12 M⁻¹ s⁻¹; in data set [3] (T 30 °C, pH 7.4) it was 9.852e+11 M⁻¹ s⁻¹; in data set [3] (T 37 °C, pH 7.4), 6.294e+11 M⁻¹ s⁻¹. Further, the “KSV, Stern-Volmer quenching constant” value in data set [3] (T 25 °C, pH 7.4, quencher 0-120 µM) worked out at 6696 M⁻¹; in data set [3] (T 30 °C, pH 7.4), 4926 M⁻¹; in data set [3] (T 37 °C, pH 7.4), 3147 M⁻¹. Besides, the results for the “ΔG of binding to BSA” value in data set [3] (T 25 °C), in data set [3] (T 30 °C) and in data set [3] (T 37 °C) were -5.22 kcal/mol, -5.112 kcal/mol and -4.964 kcal/mol, respectively. The “ΔH of binding to BSA” value in data set [3] (setting [5]) is -11.57 kcal/mol. Besides, the “ΔS of binding to BSA” value in data set [3] (setting [5]) was −89.20 J·mol^−1·K^−1.
